Reference: the supplement of paper PMC10307832

Tests used:
Assay in all cases: relative viability (nuclei count vs DMSO), 5 days (fraction); higher = more cells survive
BI-2536 + AZD7762 = compound: CC[C@@H]1C(=O)N(C)c2cnc(Nc3ccc(C(=O)NC4CCN(C)CC4)cc3OC)nc2N1C1CCCC1 [BI-2536] + NC(=O)Nc1cc(-c2cccc(F)c2)sc1C(=O)N[C@H]1CCCNC1 [AZD7762] (partner 0.2 µM)
Procedure, shortened: (§1)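 A single step with final 0.05% Triton X-100, 1% formaldehyde and 1 ug/ml Hoechst fixed the cells and stained nuclei 5 days after treatment. Lung cancer cell lines in 1536-well plates had been treated by pin tool the day after seeding with one drug alone or a fixed anchor-drug dose plus five library-drug doses (not always all listed) in √10 steps, and nuclei were counted on 4× images. Relative viability is the ratio of nuclei in treated wells to nuclei in vehicle wells, taken as the median of duplicate plates.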

[1] = compound: CC1CC(=O)N(C2=CN=C(N=C2N1C3CCCC3)NC4=C(C=C(C=C4)C(=O)NC5CCN(CC5)C)OC)C [NPK76-II-72-1] + CCNC(=O)c1noc(-c2cc(C(C)C)c(O)cc2O)c1-c1ccc(CN2CCOCC2)cc1 [Luminespib] (partner 0.01 µM)
Procedure, shortened: as §1

BI-2536 + Pictilisib = compound: CC[C@@H]1C(=O)N(C)c2cnc(Nc3ccc(C(=O)NC4CCN(C)CC4)cc3OC)nc2N1C1CCCC1 [BI-2536] + CS(=O)(=O)N1CCN(Cc2cc3nc(-c4cccc5[nH]ncc45)nc(N4CCOCC4)c3s2)CC1 [Pictilisib] (partner 1 µM)
Procedure, shortened: as §1

NPK76-II-72-1 + Olaparib = compound: CC1CC(=O)N(C2=CN=C(N=C2N1C3CCCC3)NC4=C(C=C(C=C4)C(=O)NC5CCN(CC5)C)OC)C [NPK76-II-72-1] + O=C(c1cc(Cc2n[nH]c(=O)c3ccccc23)ccc1F)N1CCN(C(=O)C2CC2)CC1 [Olaparib] (partner 8 µM)
Procedure, shortened: as §1

Cell Line | relative viability (BI-2536 + AZD7762; first compound 0.01 µM) | relative viability (BI-2536 + AZD7762; first compound 0.03162 µM) | relative viability (BI-2536 + AZD7762; first compound 0.1 µM) | relative viability (BI-2536 + AZD7762; first compound 0.3162 µM) | relative viability (BI-2536 + AZD7762; first compound 1 µM) | relative viability ([1]; first compound 0.01 µM) | relative viability ([1]; first compound 0.03162 µM) | relative viability ([1]; first compound 0.1 µM) | relative viability ([1]; first compound 0.3162 µM) | relative viability ([1]; first compound 1 µM) | relative viability (BI-2536 + Pictilisib; first compound 0.01 µM) | relative viability (BI-2536 + Pictilisib; first compound 0.03162 µM) | relative viability (BI-2536 + Pictilisib; first compound 0.1 µM) | relative viability (BI-2536 + Pictilisib; first compound 0.3162 µM) | relative viability (BI-2536 + Pictilisib; first compound 1 µM) | relative viability (NPK76-II-72-1 + Olaparib; first compound 0.01 µM) | relative viability (NPK76-II-72-1 + Olaparib; first compound 0.03162 µM) | relative viability (NPK76-II-72-1 + Olaparib; first compound 0.1 µM) | relative viability (NPK76-II-72-1 + Olaparib; first compound 0.3162 µM) | relative viability (NPK76-II-72-1 + Olaparib; first compound 1 µM)
NCI-H2405 | 0.698 | 0.624 | 0.269 | 0.303 | 0.289 | 0.625 | 0.688 | 0.773 | 0.771 | 0.93 | 0.369 | 0.391 | 0.265 | 0.0965 | 0.201 | 0.861 | 0.888 | 0.908 | 0.858 | 0.88
LCLC-97TM1 | 0.159 | 0.216 | 0.0989 | 0.0787 | 0.0721 | 0.673 | 0.768 | 0.532 | 0.748 | 0.748 | 0.182 | 0.185 | 0.127 | 0.11 | 0.0962 | 0.357 | 0.394 | 0.346 | 0.249 | 0.424
NCI-H596 | 1.1 | 1.14 | 1.11 | 0.342 | 0.403 | 0.871 | 1.18 | 0.975 | 1.03 | 1.12 | 0.376 | 0.293 | 0.198 | 0.215 | 0.205 | 0.771 | 0.748 | 0.68 | 0.704 | 0.67
NCI-H727 | 0.479 | 0.8 | 0.664 | 0.406 | 0.314 | 0.29 | 0.31 | 0.288 | 0.246 | 0.412 | 0.391 | 0.338 | 0.433 | 0.265 | 0.19 | 0.957 | 0.774 | 0.655 | 0.699 | 0.679
